Reference: paper PMC9114338 (Scientific Reports, 2022)
Read-outs that look alike come from different tables or passages of the source.

Legend:
[1] = subcutaneous dosing of the free drug, humanized mice; cited from earlier work
[2] = Compartmental PK model, IV and SQ co-modeling; assay type: in vivo, C57BL/6 J mice; settings: mouse
Description: The results of the simultaneous model (co-model) are summarized in Table 2, and the parameters were used in subsequent simulation exercises (vide infra).
The change in amount over time within each compartment was related to the difference in the input into the compartment (e.g., the Dose × F × Ka term into compartment C1) and the output from the compartment (e.g., the Concentration × Kout term for compartment Ccell). Two compartments –plus a dosing compartment– best described TFV plasma PKs.
A third compartment was used to model the PKs of PBMC TFV-DP concentrations. Intracellular PKs of TFV-DP were linked to the plasma TFV concentration via saturable uptake (Vmax and Km) with maximum velocity of uptake and first order elimination kinetics, Kout. […] C1 is the central compartment, representing the TFV plasma concentration in the body. The second compartment C2 represents the peripheral tissues, and the cellular compartment Ccell represents the concentrations of TFV-DP in PBMCs. Parameters CLp and Vp describe clearance and volume of the peripheral compartment (C2) and Ka and CL are the rates of TFV uptake and clearance into/out of the central compartment (C1), respectively. […] The physiological PBMC volume was assumed to be 7.55 × 10^–7 L/10^6 cells, to remain consistent with Duwal et al.[44] for the model analysis, while all other parameters were estimated in the model. The ordinary differential equations (Eqs. 1–3) used in the final model are presented below:1 d/dtC1t=F·Ka·Dt/V-C1t·CL/V-CLp/V·C1t+CLp/Vp·C2t 2 d/dtC2t=[…] 3 d/dtCcellt=Vmax·C1t/Km-Ccellt·Kout
Compartmental analyses were performed in Phoenix software (version 8.3, Certara, Princeton, NJ) using a published, simple, structural PK model describing the TFV kinetics. IV and SQ data were modeled simultaneously. Due to the destructive nature of the blood sampling, data were modeled using a naïve-pooled algorithm, without inter-animal variability. The resulting systemic parameters, along with the implant in vivo release rates on a per animal basis, were used to co-model (predict) concentration data in mice following during implant dosing.

[3] = MALDI imaging mass spectrometry of dermal tissues adjacent to the implant; assay type: in vivo, C57BL/6 J mice
Method: The used implants, the surrounding capsule, and the encasing dermal tissue were removed as a block in accordance with ISO 10993-6 guidelines, processed and stored, as described elsewhere. Briefly, the capsule was cut longitudinally and rolled open, taking care not to disrupt the architecture of the tissue or to damage the used implant. A portion of the tissue specimen was placed into 4% paraformaldehyde solution (phosphate-buffered at pH 7.2), and stored at 4 °C, for histopathology and two other portions were flash-frozen in liquid nitrogen for drug concentration analysis as well as for drug spatial distribution analysis by MALDI-IMS (vide infra).
Frozen mouse tissue specimens were shipped to Vanderbilt University on dry ice and stored at − 80 °C prior to use. Tissues were removed from the − 80 °C freezer and placed in a − 20 °C cryostat (CM 1900, Leica Biosystems, Buffalo Grove, IL) and sectioned. Tissue samples that had been prepared via removal of the used implant were affixed to the cryostat chuck with optimal cutting temperature (OCT) polymer and were cut on the cryostat into 12 µm thick sections for imaging mass spectrometry and H&E staining.
Tissue samples that still contained the implant in place were embedded in OCT prior to sectioning. In order to minimize the artifactual signal from the TAF powder after sectioning (the act of the cryostat blade cutting through an intact implant distributed residual TAF powder that still remained in the used implant onto the surrounding tissue section), house vacuum was used to remove visible TAF powder, followed by lightly running nitrogen gas over the plate to remove any additional loose powder from the slide.
The tissue sections were thaw-mounted onto indium-tin oxide coated glass slides for imaging (Delta Technologies, Ltd, Loveland, CO). The tissue sections were left to dry for at least 15 min in a desktop vacuum desiccator prior to matrix application. […] For 9AA, four passes were applied at 85 °C in a crisscross pattern, with a 700 mm min^-1 stage velocity, 2 mm track spacing, and 0.15 mL min^-1 flow rate. For DHB the same method was used, except eight passes were applied and the stage velocity was 1300 mm min^-1.
Flash-frozen dermal tissue samples collected adjacent to the TAF implants and sectioned were analyzed with a linear ion trap mass spectrometer equipped with a MALDI source and a nitrogen laser (LTQ XL, Thermo Scientific, Waltham, MA). The structures of compounds of interest are shown in Scheme 1. Targeted MS/MS methods were optimized for each compound using authentic samples as standards, with the final parameters shown in Appendix A under Supplementary Information. Pseudo-selected reaction monitoring mode was used for imaging by isolating precursor ions with a 1 Da window, fragmenting them, and acquiring full product ion mass spectra at each pixel. TFV, TFV-MP, and TFV-DP were analyzed in negative ion mode, while TAF, Metabolite X, and Metabolite Y were analyzed in positive ion mode. In most cases, after imaging, the matrix was removed and the tissue section that had been imaged was H&E stained for better image registration with tissue morphology. Standard images were acquired at either 50 or 100 µm spatial resolution. Reconstructed ion images were generated in ImageQuest software (Thermo Scientific, Waltham, MA) by plotting the intensity of the diagnostic fragment ion or ions as a function of location across the tissue surface.

clearance ([2]; C57BL/6 J, plasma, other: intravenous and subcutaneous injection, co-modelled, 0.5 mg, IV and SQ co-modeling, read-out: CL, total body clearance (converted)): 4.48 mL/min
half-life ([2]; C57BL/6 J, plasma, other: intravenous and subcutaneous injection, co-modelled, 0.5 mg, IV and SQ co-modeling, read-out: Elimination half-life t1/2, plasma TFV (converted)): 53 h
Vd ([2]; C57BL/6 J, plasma, other: intravenous and subcutaneous injection, co-modelled, 0.5 mg, IV and SQ co-modeling, read-out: V, volume of distribution of the central compartment): 4.59 L
half-life ([2]; C57BL/6 J, plasma, other: intravenous and subcutaneous injection, co-modelled, 0.5 mg, IV and SQ co-modeling, read-out: t1/2, elimination half-life, plasma TFV (converted)): 52.8 h
Vmax/Km as share of the non-saturable clearance ([2]; in vivo): 2%
Detection by MALDI-IMS in dermal tissue samples during implant TAF delivery ([3]; all medicated specimens): detected
MALDI-IMS signal and localization with implant in situ ([3]; low-releasing (0.23 mg d^-1) implants, Day 14, 100 µm resolution): most abundant signals
Structure (SMILES): C[C@H](Cn1cnc2c(N)ncnc21)OCP(=O)(O)O [TFV, tenofovir]
Plasma TFV t1/2 [1]: 14 h
Spatial distribution in dermal tissue sections (MALDI-IMS) ([3]; high-releasing (0.58 mg d^-1) implants, D3–D28): distributed homogeneously throughout the samples
